Results as given in the supplement of paper PMC11208160.

Experiments:
[1] = recombinant barcode read abundance after kanamycin selection (control-corrected) (log10(CPM+1)); higher = more efficient recombination; sequences stand for … in AGTGCAGAGAAAATCGGCCAGTTTTCTCTGCCTGCAGTCCGCATGCCGT…AGATTTATGCAGCGGACTGCCTTTCTCCCAAAGTGATAAACCGGACAGTATCATGGACCGGTTTTCCCGGTAATCCGTATTTGCAAGGTTGGTTTCACT; site = the 11-nt target
Experimental: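 Pooled E. coli target-specificity screen for the IS621 bridge recombinase. Each library plasmid pairs an 11-nt target (CT core) with a bridge RNA whose target-binding loop (9-nt LTG + 4-nt RTG) is reprogrammed; the rest of the 177-nt WT IS621 bridge RNA scaffold is fixed. The plasmid is co-electroporated with a WT donor plasmid; recombinase is induced with 0.1 mM IPTG and recombinants are selected on kanamycin. Recombinant barcodes are sequenced, converted to CPM, averaged over two biological replicates and corrected by the unselected control CPM. Molecule = full bridge RNA written as DNA: LTG = specificity nt 1-9, RTG = reverse complement of specificity nt 8-11, in the WT scaffold.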

[2] = recombinant UMI read abundance after kanamycin selection (control-corrected) (log10(CPM+1)); higher = more efficient recombination; extreme values may be limits of the assay; sequences stand for … in AGTGCAGAGAAAATCGGCCAGTTTTCTCTGCCTGCAGTCCGCATGCCGTGGGACCCCTTGGGTTCTAACCTGTTGCCTAGATTTATGCAGCGGACTGCCTTTCTCCCAAAGTGATAAACCGG…AGGTTGGTTTCACT; site = the 11-nt donor
Summary of the method: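 Values, expressed as log10(CPM+1), derive from recombinant UMI counts converted to CPM, averaged across replicates and scaled by control-derived factors. Plating was with IPTG (0.07 mM) plus kanamycin or unselected, two replicates each. The screen pooled donor and donor-binding-loop pairs for the IS621 bridge recombinase in Escherichia coli.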
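Wherever recombinant UMI read abundance after kanamycin selection (control-corrected) is given: IS621 bridge recombinase in Escherichia coli cells against a fixed T5 target plasmid.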
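Wherever recombinant barcode read abundance after kanamycin selection (control-corrected) is given: IS621 recombinase and bridge RNA in Escherichia coli cells.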

| Sequence | recombinant barcode read abundance (log10) [1] | recombinant UMI read abundance (log10) [2] |
| --- | --- | --- |
| AAACCACCTTGGGTTCTAACCTGTTGCCT (site AAACCACCTAG) | 1.49 |  |
| AAACCACCTTGGGTTCTAACCTGTTGCCT (site ACACCACCTAG) | 0.257 |  |
| AAACCACCTTGGGTTCTAACCTGTTGCCT (site AGACCACCTAG) | 0.276 |  |
| AAACCACCTTGGGTTCTAACCTGTTGCCT (site ATACCACCTAG) | 0.861 |  |
| AAATCCTCTTGGGTTCTAACCTGTTGCCT (site AAATCCTCTAG) | 1.04 |  |
| AAATCCTCTTGGGTTCTAACCTGTTGCCT (site CAATCCTCTAG) | 0.475 |  |
| AAATCCTCTTGGGTTCTAACCTGTTGCCT (site GAATCCTCTAG) | 0.085 |  |
| AAATCCTCTTGGGTTCTAACCTGTTGCCT (site TAATCCTCTAG) | 0.409 |  |
| AAATGACCTTGGGTTCTAACCTGTTGCGT (site AAATGACCTAC) | 2.66 |  |
| AAATGACCTTGGGTTCTAACCTGTTGCGT (site GTGCCCGCTCT) | 0.548 |  |
| AAATTGACTTGGGTTCTAACCTGTTGCCT (site AAATTGACTAG) | 0.624 |  |
| AAATTGACTTGGGTTCTAACCTGTTGCCT (site AACTTGACTAG) | 0.136 |  |
| AAATTGACTTGGGTTCTAACCTGTTGCCT (site AAGTTGACTAG) | 0.0999 |  |
| AAATTGACTTGGGTTCTAACCTGTTGCCT (site AATTTGACTAG) | 0.0913 |  |
| AAATTTCCTTGGGTTCTAACCTGTTGCCT (site AAATTTCCTAG) | 0.42 |  |
| AAATTTCCTTGGGTTCTAACCTGTTGCCT (site ACATTTCCTAG) | 0.0879 |  |
| AAATTTCCTTGGGTTCTAACCTGTTGCCT (site AGATTTCCTAG) | 0.0553 |  |
| AAATTTCCTTGGGTTCTAACCTGTTGCCT (site ATATTTCCTAG) | 0.123 |  |
| AACACGTCTTGGGTTCTAACCTGTTGCCT (site AAATCGTCTAG) | 0.0544 |  |
| AACACGTCTTGGGTTCTAACCTGTTGCCT (site AACACGTCTAG) | 0.576 |  |
| AACACTCCTTGGGTTCTAACCTGTTGCTT (site AACACTCCTAA) | 0.0689 |  |
| AACACTCCTTGGGTTCTAACCTGTTGCTT (site AAGACTCCTAA) | 0.299 |  |
| AACAGTTCTTGGGTTCTAACCTGTTGCCT (site AACAGCTCTAG) | 0.151 |  |
| AACAGTTCTTGGGTTCTAACCTGTTGCCT (site AACAGTTCTAG) | 0.749 |  |
| AACCGCCCTTGGGTTCTAACCTGTTGCGT (site AACCGCCCTAC) | 2.47 |  |

| Sequence | recombinant barcode read abundance (log10) [1] | recombinant UMI read abundance (log10) [2] |
| --- | --- | --- |
| AACCGCCCTTGGGTTCTAACCTGTTGCGT (site AACCGCCCTAG) | 0.434 |  |
| AACCTAGCTTGGGTTCTAACCTGTTGCTA (site AACCTAGCTTA) | 0.395 |  |
| AACCTAGCTTGGGTTCTAACCTGTTGCTA (site ACCCTAGCTGA) | 0.0657 |  |
| AACGCTTCTTGGGTTCTAACCTGTTGCCT (site AACGCTTCTAG) | 0.3 |  |
| AACGCTTCTTGGGTTCTAACCTGTTGCCT (site ACCGCTTCTAG) | 0.215 |  |
| AACGCTTCTTGGGTTCTAACCTGTTGCCT (site AGCGCTTCTAG) | 0.0496 |  |
| AACGCTTCTTGGGTTCTAACCTGTTGCCT (site ATCGCTTCTAG) | 0.0246 |  |
| AACGTACCTTGGGTTCTAACCTGTTGCCA (site AACGTACCTTG) | 0.674 |  |
| AACGTACCTTGGGTTCTAACCTGTTGCCA (site GGTAATACTAT) | 0.0669 |  |
| AACTCTCCTTGGGTTCTAACCTGTTGCAT (site AACTATCCTAT) | 0.11 |  |
| AACTCTCCTTGGGTTCTAACCTGTTGCAT (site AACTCTCCTAT) | 0.588 |  |
| AACTCTCCTTGGGTTCTAACCTGTTGCAT (site AACTGTCCTAT) | 0.188 |  |
| AACTCTCCTTGGGTTCTAACCTGTTGCAT (site AACTTTCCTAT) | 0.0336 |  |
| AACTGATCTTGGGTTCTAACCTGTTGCCT (site AACTAATCTAG) | 0.0976 |  |
| AACTGATCTTGGGTTCTAACCTGTTGCCT (site AACTCATCTAG) | 0.0693 |  |
| AACTGATCTTGGGTTCTAACCTGTTGCCT (site AACTGATCTAG) | 0.397 |  |
| AACTGATCTTGGGTTCTAACCTGTTGCCT (site AACTTATCTAG) | 0.038 |  |
| AACTGGGCTTGGGTTCTAACCTGTTGCCT (site AACTGGGCTAG) | 0.252 |  |
| AACTGGGCTTGGGTTCTAACCTGTTGCCT (site ACCTGGGCTAG) | 0.149 |  |
| AACTGGGCTTGGGTTCTAACCTGTTGCCT (site AGCTGGGCTAG) | 0.0923 |  |
| AACTGGGCTTGGGTTCTAACCTGTTGCCT (site ATCTGGGCTAG) | 0.141 |  |
| AACTGTCCTTGGGTTCTAACCTGTTGCAT (site AACTATCCTAT) | 0.106 |  |
| AACTGTCCTTGGGTTCTAACCTGTTGCAT (site AACTCTCCTAT) | 0.0428 |  |
| AACTGTCCTTGGGTTCTAACCTGTTGCAT (site AACTGTCCTAT) | 0.805 |  |
| AACTGTCCTTGGGTTCTAACCTGTTGCAT (site AACTTTCCTAT) | 0.106 |  |

| Sequence | recombinant barcode read abundance (log10) [1] | recombinant UMI read abundance (log10) [2] |
| --- | --- | --- |
| AACTTAACTTGGGTTCTAACCTGTTGCCT (site AACTAAACTAG) | 0.236 |  |
| AACTTAACTTGGGTTCTAACCTGTTGCCT (site AACTCAACTAG) | 0.0571 |  |
| AACTTAACTTGGGTTCTAACCTGTTGCCT (site AACTGAACTAG) | 0.09 |  |
| AACTTAACTTGGGTTCTAACCTGTTGCCT (site AACTTAACTAG) | 0.531 |  |
| AACTTCGCTTGGGTTCTAACCTGTTGCCT (site AACTTCACTAG) | 0.114 |  |
| AACTTCGCTTGGGTTCTAACCTGTTGCCT (site AACTTCCCTAG) | 0.00931 |  |
| AACTTCGCTTGGGTTCTAACCTGTTGCCT (site AACTTCGCTAG) | 0.423 |  |
| AACTTCGCTTGGGTTCTAACCTGTTGCCT (site AACTTCTCTAG) | 0.269 |  |
| AACTTGACTTGGGTTCTAACCTGTTGCCT (site AAATTGACTAG) | 0.248 |  |
| AACTTGACTTGGGTTCTAACCTGTTGCCT (site AACTTGACTAG) | 0.731 |  |
| AACTTGACTTGGGTTCTAACCTGTTGCCT (site AAGTTGACTAG) | 0.0706 |  |
| AACTTGACTTGGGTTCTAACCTGTTGCCT (site AATTTGACTAG) | 0.232 |  |
| AAGAACTCTTGGGTTCTAACCTGTTGCCG (site AAGAACTCTCG) | 2.1 |  |
| AAGAACTCTTGGGTTCTAACCTGTTGCCG (site GTTTCAACTAC) | 0.0172 |  |
| AAGATACCTTGGGTTCTAACCTGTTGCTG (site AAGATACCTAA) | 0.283 |  |
| TTTGCTTCATGGACCGGTTTTCCCGGTAATCCGTATTTGGT (site TTTGCTTCTAC) |  | 0.00326 |
| TTTGTTCCATGGACCGGTTTTCCCGGTAATCCGTATTTGTG (site TTTGTTCCTCA) |  | 0.0191 |
| TTTTCCCCATGGACCGGTTTTCCCGGTAATCCGTATTTGTA (site TATTCCCCTTA) |  | 0.00331 |
| TTTTCCCCATGGACCGGTTTTCCCGGTAATCCGTATTTGTA (site TCTTCCCCTTA) |  | 0.00391 |
| TTTTCCCCATGGACCGGTTTTCCCGGTAATCCGTATTTGTA (site TGTTCCCCTTA) |  | 0.0253 |
| TTTTCCCCATGGACCGGTTTTCCCGGTAATCCGTATTTGTA (site TTTTCCCCTTA) |  | 0.0384 |
| TTTTCGGCATGGACCGGTTTTCCCGGTAATCCGTATTTGCT (site TTTACGGCTAG) |  | 0.0102 |
| TTTTCGGCATGGACCGGTTTTCCCGGTAATCCGTATTTGCT (site TTTCCGGCTAG) |  | 0.302 |
| TTTTCGGCATGGACCGGTTTTCCCGGTAATCCGTATTTGCT (site TTTGCGGCTAG) |  | 0.00223 |
| TTTTCGGCATGGACCGGTTTTCCCGGTAATCCGTATTTGCT (site TTTTCGGCTAG) |  | 0.0145 |
